Results from the supplement of paper PMC9701192.
± gives the uncertainty stated by the source.

Experiments:
Assay in all cases: mass response relative to vehicle control (EMD distance of treated vs reference mass distribution minus control baseline) (% of mean reference cell mass); higher = larger drug-induced change in single-cell mass distribution (stronger response)
MOLM-13 = system: MOLM-13
Description: (§1)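 Cancer cell lines were treated in vitro with drugs at the listed doses (about 24 h; 0.25% DMSO vehicle). Single-cell buoyant mass was measured on suspended microchannel resonator instruments with CNN image curation, 2500 cells per condition. Mass response is the Earth Mover's Distance to vehicle-treated reference cells as % of mean reference mass.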

PC9 = system: PC9
Description: as §1

MDA-MB-361 = system: MDA-MB-361
Description: as §1

MM1S ATCC = system: MM1S ATCC
Description: as §1

What does the source list for `Nc1ncn([C@@H]2O[C@H](CO)[C@@H](O)[C@H]2O)c(=O)n1` [5-Azacytidine]?
mass response (MOLM-13; 0.1 µM): 1.27 ± 0.26; mass response (MOLM-13; 1 µM): 10.1 ± 1.9; mass response (MOLM-13; 10 µM): 35.2 ± 2.8; mass response (MOLM-13; 0.0001 M): 36.45 ± 0.22

Which results are given for `CN(C)C/C=C/C(=O)Nc1cc2c(Nc3ccc(F)c(Cl)c3)ncnc2cc1O[C@H]1CCOC1` [Afatinib]?
mass response (PC9; 0.01 µM): 13.3 ± 4; mass response (PC9; 0.1 µM): 15.8 ± 1.3; mass response (PC9; 1 µM): 19.1 ± 1.6; mass response (PC9; 10 µM): 30.7 ± 4

What does the source list for `Cc1nc(NC(=O)N2CCC[C@H]2C(N)=O)sc1-c1ccnc(C(C)(C)C(F)(F)F)c1` [Alpelisib]?
mass response (MDA-MB-361; 0.05 µM): 7.91 ± 1.6; mass response (MDA-MB-361; 0.5 µM): 16.4 ± 0.24; mass response (MDA-MB-361; 5 µM): 39.9 ± 5.9; mass response (MDA-MB-361; 50 µM): 62.6 ± 1.8

What does the source list for `COc1cc(N2CCC(N3CCN(C)CC3)CC2)ccc1Nc1ncc(Cl)c(Nc2ccccc2P(C)(C)=O)n1` [Brigatinib]?
mass response (PC9; 0.1 µM): 1.59 ± 3.9; mass response (PC9; 0.5 µM): 22.4 ± 1.5; mass response (PC9; 1 µM): 33.6 ± 2.4; mass response (PC9; 10 µM): 51.3 ± 5.4

How did the mass response (PC9; 0.1 µM) turn out when `O=C(O)C1(C(=O)O)CCC1.[NH2-].[NH2-].[Pt+2]` [Carboplatin] was run?
Its mass response is -0.849 ± 1.3.

What about the mass response (PC9; 1 µM) of the same compound?
Its mass response is 1.45 ± 5.4.

What about the mass response (PC9; 10 µM) of the same compound?
Its mass response is 11.1 ± 3.2.

What about the mass response (PC9; 0.0001 M) of the same compound?
Its mass response is 25.9 ± 5.4.

Which mass response (MM1S ATCC; 0.005 µM) does the source give for `CC(C)C[C@H](NC(=O)[C@H](CCc1ccccc1)NC(=O)CN1CCOCC1)C(=O)N[C@@H](Cc1ccccc1)C(=O)N[C@@H](CC(C)C)C(=O)[C@@]1(C)CO1` [Carfilzomib] here?
Its mass response is 10.7 ± 4.9.

What about the mass response (MM1S ATCC; 0.05 µM) of the same compound?
Its mass response is 31 ± 2.6.

And the mass response (MM1S ATCC; 0.1 µM)?
Its mass response is 34.7 ± 2.

What about the mass response (MM1S ATCC; 0.5 µM) of the same compound?
The mass response was 33.4 ± 2.5.

What does the source list for `N.N.[Cl][Pt][Cl]` [Cisplatin]?
mass response (MDA-MB-361; 10 µM): 3.9 ± 9.3; mass response (MDA-MB-361; 20 µM): 2.2 ± 2.3; mass response (MDA-MB-361; 50 µM): 4.96 ± 1.6; mass response (MDA-MB-361; 0.0001 M): 19.4 ± 2.7

How did the mass response (MOLM-13; 0.001 µM) turn out when `CC1(COc2ccc3c(c2)ncn3-c2ccc3cccc(N4CCC(N)CC4)c3n2)COC1` [Crenolanib] was run?
Its mass response is 3.34 ± 2.

And the mass response (MOLM-13; 0.01 µM)?
Its mass response is 31 ± 1.7.

And the mass response (MOLM-13; 0.1 µM)?
The mass response was 37.3 ± 0.76.

And the mass response (MOLM-13; 1 µM)?
The mass response was 37.99 ± 0.31.

For `COc1cc2ncnc(Nc3ccc(F)c(Cl)c3)c2cc1NC(=O)/C=C/CN1CCCCC1` [Dacomitinib], which mass response (PC9; 0.5 µM) is on record?
The mass response was 14.47 ± 0.087.

And the mass response (PC9; 5 µM)?
Its mass response is 25.2 ± 0.96.

And the mass response (PC9; 20 µM)?
The mass response was 55.6 ± 1.2.

What about the mass response (PC9; 50 µM) of the same compound?
The mass response was 62.57 ± 0.055.

How did the mass response (MOLM-13; 0.01 µM) turn out when `COc1cccc2c1C(=O)c1c(O)c3c(c(O)c1C2=O)C[C@@](O)(C(C)=O)C[C@@H]3O[C@H]1C[C@H](N)[C@H](O)[C@H](C)O1` [Daunorubicin] was run?
The mass response was 3.77 ± 1.2.

What about the mass response (MOLM-13; 0.1 µM) of the same compound?
The mass response was 22.3 ± 2.7.

And the mass response (MOLM-13; 1 µM)?
Its mass response is 31.1 ± 1.9.

And the mass response (MOLM-13; 10 µM)?
The mass response was 45.8 ± 2.6.

Which results are given for `Nc1ncn([C@H]2C[C@H](O)[C@@H](CO)O2)c(=O)n1` [Decitabine]?
mass response (MOLM-13; 0.25 µM): 7.58 ± 1.9; mass response (MOLM-13; 2.5 µM): 9.65 ± 3.3; mass response (MOLM-13; 25 µM): 9.39 ± 2.4; mass response (MOLM-13; 0.00025 M): 8.64 ± 2.2

How did the mass response (MM1S ATCC; 0.02 µM) turn out when `C[C@@H]1C[C@H]2[C@@H]3CCC4=CC(=O)C=C[C@]4(C)[C@@]3(F)[C@@H](O)C[C@]2(C)[C@@]1(O)C(=O)CO` [Dexamethasone] was run?
Its mass response is 13.7 ± 1.9.

What about the mass response (MM1S ATCC; 0.2 µM) of the same compound?
The mass response was 14.8 ± 2.1.

And the mass response (MM1S ATCC; 2 µM)?
Its mass response is 14.5 ± 2.

And the mass response (MM1S ATCC; 20 µM)?
Its mass response is 13.5 ± 2.

How did the mass response (PC9; 0.001 µM) turn out when `CC(=O)O[C@@]12CO[C@@H]1C[C@H](O)[C@@]1(C)C(=O)[C@H](O)C3=C(C)[C@@H](OC(=O)[C@H](O)[C@@H](NC(=O)OC(C)(C)C)c4ccccc4)C[C@@](O)([C@@H](OC(=O)c4ccccc4)[C@H]21)C3(C)C` [Docetaxel] was run?
The mass response was 0.63 ± 3.4.

And the mass response (PC9; 0.0025 µM)?
Its mass response is 5.56 ± 2.2.

And the mass response (PC9; 0.005 µM)?
The mass response was 12.4 ± 1.8.

And the mass response (PC9; 0.01 µM)?
Its mass response is 25.2 ± 4.1.

For `COc1cccc2c1C(=O)c1c(O)c3c(c(O)c1C2=O)C[C@@](O)(C(=O)CO)C[C@@H]3O[C@H]1C[C@H](N)[C@H](O)[C@H](C)O1` [Doxorubicin], which mass response (PC9; 0.15 µM) is on record?
Its mass response is 33.3 ± 6.1.

And the mass response (PC9; 0.625 µM)?
Its mass response is 22.9 ± 4.7.

What about the mass response (PC9; 2.5 µM) of the same compound?
The mass response was 6.7 ± 3.

What about the mass response (PC9; 10 µM) of the same compound?
Its mass response is 40.9 ± 3.2.

`C#Cc1cccc(Nc2ncnc3cc(OCCOC)c(OCCOC)cc23)c1` [Erlotinib] was tested. Which mass response (PC9; 0.01 µM) did it give?
Its mass response is 0.55 ± 1.1.

And the mass response (PC9; 0.1 µM)?
Its mass response is 15.4 ± 1.5.

And the mass response (PC9; 1 µM)?
The mass response was 17.2 ± 0.41.

What about the mass response (PC9; 10 µM) of the same compound?
The mass response was 24.6 ± 1.6.
